Results as given in patent publication US12692274B2, “Tetrahydroisoquinoline derivatives for the treatment of red blood disorders and inflammatory diseases” (Sanofi, priority 2020, dated 2026).
“And” between values parts separate entries of the source, which are not always exact repeats. Equal entries are not always repeated.

How the values were obtained:
[1] = tested on: NQO1 activation in BEAS-2B cells; experiment: BEAS-2B cellular MTT assay of NQO1 activation, 0% HSA; format: cell-based
Method in brief: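 For the 0% HSA condition, cells were seeded into collagen plates in HSA-free medium. Culture was BEAS-2B in BEBM plus BEGM SingleQuots lacking GA-1000, held under 70% confluence, at a seeding density reaching 95-100% confluence by 48 h.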

[2] = tested on: NQO1 activation in BEAS-2B cells; experiment: BEAS-2B cellular MTT assay of NQO1 activation, 0.3% HSA; format: cell-based
Method in brief: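 MTT read-out in BEAS-2B cells grown in BEBM with SingleQuots, no GA-1000, kept below 70% confluence; plates coated with collagen, with 0.3% or 0% HSA medium, seeded to 95-100% confluency at 48 h, 37 °C, 5% CO2.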

[3] = molecular target: HIS-Keap1 full length / Biotin-Nrf2 (16-mer) (Homo sapiens, UniProt Q14145); experiment: biochemical
Chain of HIS-Keap1 full length / Biotin-Nrf2 (16-mer) (Q14145 whole entry): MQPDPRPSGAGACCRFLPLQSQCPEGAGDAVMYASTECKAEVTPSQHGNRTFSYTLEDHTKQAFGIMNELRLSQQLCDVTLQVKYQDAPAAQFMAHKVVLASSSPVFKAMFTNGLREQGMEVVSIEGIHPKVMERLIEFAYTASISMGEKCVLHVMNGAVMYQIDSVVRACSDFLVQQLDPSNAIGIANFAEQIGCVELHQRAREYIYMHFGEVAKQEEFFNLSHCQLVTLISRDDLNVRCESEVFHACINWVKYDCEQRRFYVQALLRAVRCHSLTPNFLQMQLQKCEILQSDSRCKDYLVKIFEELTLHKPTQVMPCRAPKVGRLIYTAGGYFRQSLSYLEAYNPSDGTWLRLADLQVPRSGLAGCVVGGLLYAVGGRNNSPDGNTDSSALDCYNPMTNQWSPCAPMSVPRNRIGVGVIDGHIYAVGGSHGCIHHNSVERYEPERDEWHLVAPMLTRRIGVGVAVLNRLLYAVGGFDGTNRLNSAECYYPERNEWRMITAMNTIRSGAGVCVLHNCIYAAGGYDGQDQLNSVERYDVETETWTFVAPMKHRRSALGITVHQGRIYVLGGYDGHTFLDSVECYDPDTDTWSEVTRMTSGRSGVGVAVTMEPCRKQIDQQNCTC

[4] = Homo sapiens, serum free, read-out: BEAS EC50 (nM) serum free
[5] = serum free, read-out: BEAS EC50 (nM) serum free
[6] = Homo sapiens, BEAS+, read-out: BEAS+ EC50
[7] = Homo sapiens, Serum Free W, read-out: BEAS EC50 (nM) Serum Free W
[8] = Serum Free W, read-out: BEAS EC50 (nM) Serum Free W
[9] = BEAS+ W, read-out: BEAS+ W EC50
[10] = Homo sapiens, BEAS+ W, read-out: BEAS+ W EC50

| Compound | EC50 [1, 4] [nM] | EC50 [1, 5] [nM] | EC50 ([2]; BEAS+, read-out: BEAS+ EC50) [nM] | EC50 [2, 6] [nM] | IC50 [3] | EC50 [1, 7] [nM] | EC50 [1, 8] | EC50 [2, 9] | EC50 [2, 10] [nM] |
| --- | --- | --- | --- | --- | --- | --- | --- | --- | --- |
| Cc1c2ccc3c1nnn3CCCCCCc1ccc(nc1)C(=O)N1CCc3ccc(cc3C1)C2CC(=O)O (stereo not shown) [Compound 230] | 384 | 471 | 961 | 1090 | 4.8 nM |  |  |  |  |
| Cc1cc2ccc1C(=O)N1CCc3ccc(cc3C1)C(CC(=O)O)c1ccc(nc1C)OCCCCO2 (stereo not shown) [Compound 178] | 1160 | 1140 | 933 | 1410 | 113 nM and 105 nM |  |  |  |  |
| Cc1c2cnc3c1nnn3CCCCCc1cc(F)c(c(F)c1)C(=O)N1CCc3ccc(cc3C1)[C@H]2CC(=O)O [Compound 139] | 0.2 |  | 0.3 | 0.2 | 0.1 nM |  |  |  |  |
| COc1cc2ccc1CCCCCCn1nnc3c(C)c(ccc31)C(CC(=O)O)c1ccc3c(c1)CN(CC3)C2=O (stereo not shown) [Compound 189] | 4.4 | 6 | 15.9 | 18.8 | 22.8 nM and 23.3 nM |  |  |  |  |
| Cc1c2ccc3c1nnn3CCCCCCOc1ccc(cc1)C(=O)N1CCc3ccc(cc3C1)[C@H]2[C@H](C)C(=O)O [Compound 159] | 113 | 122 | 480 | 461 | 6.9 nM and 7.2 nM |  |  |  |  |
| Cc1cc2cc3c1CCN(C3)C(=O)c1ccc(cc1)CCCCCCn1nnc3c(C)c(cnc31)[C@@H]2CC(=O)O [Compound 92] |  |  |  |  | 4.6 nM and 3.9 nM | 23.6 | 24.8 nM | 141 nM | 115 |
| Cc1cc2ncc1[C@H]([C@H](C)C(=O)O)c1ccc3c(c1)CN(CC3)C(=O)c1ccc(cc1)C/C=C/CCO2 [Compound 62] |  |  |  |  | 0.4 nM and 0.8 nM | 0.2 | 0.1 nM | 0.4 nM and 0.3 nM | < 0.5 |
| Cc1c2ccc3c1nnn3CCCCCOc1ccc(cc1F)C(=O)N1CCc3ccc(cc3C1)C2CC(=O)O (stereo not shown) [Compound 275] | 123 |  |  | 85.9 | 1.9 nM |  |  |  |  |
| Cc1cc2ccc1C(=O)N1CCc3ccc(cc3C1)[C@@H](CC(=O)O)c1cnc(cc1C)OCCCCC2 [Compound 100] |  |  |  |  | 1.1 nM and 1 nM | 1.7 | 1.6 nM | 9.1 nM | 8 |
| Cc1c2ccc3c1nnn3CCCCCc1ccc3c(c1)nc(n3C)C(=O)N1CCc3ccc(cc3C1)C2CC(=O)O (stereo not shown) [Compound 205] | 318 | 329 | 507 | 372 | 2.7 nM and 3 nM |  |  |  |  |
| Cc1cc2cc3c1CCN(C3)C(=O)c1ccc(cc1)CCCCCCn1nnc3c(C)c(cnc31)C2CC(=O)O (stereo not shown) [Compound 106] |  |  |  |  | 0.9 nM and 0.7 nM | 4.5 | 5.6 nM | 44.8 nM | 35.5 |
| Cc1c2ccc3c1nnn3CCCCCCc1cc(F)c(c(F)c1)C(=O)N1CCc3ccc(cc3C1)C2CC(=O)O (stereo not shown) [Compound 253] | 5.4 |  |  | 6.6 | 1.3 nM |  |  |  |  |
| Cc1c2ccc3c1nnn3CCCCCCc1ccc3c(c1)cc(n3CCCF)C(=O)N1CCc3ccc(cc3C1)[C@@H]2CC(=O)O [Compound 69] |  |  |  |  | 0.9 nM and 0.7 nM | 7.7 | 9 nM | 549 nM | 494 |
| Cn1cc2c3ccc(cc31)CCCCOc1ccc(cn1)C(CC(=O)O)c1ccc3c(c1)CN(CC3)C2=O (stereo not shown) [Compound 121] |  |  |  |  | > 990 nM | > 1000 |  |  | > 10000 |
| Cc1c2n(C)c3ccc(cc13)C/C=C\CCCn1nnc3c(C)c(cnc31)[C@H](CC(=O)O)c1ccc3c(c1)CN(CC3)C2=O [Compound 43] |  |  |  |  | 0.2 nM | 4.4 | 4.3 nM and 3.7 nM | 43.5 nM and 37 nM | 42.9 |
| Cc1c2ccc3c1nnn3CCCCCCc1ccc3nc(n(C)c3c1)C(=O)N1CCc3ccc(cc3C1)C2CC(=O)O (stereo not shown) [Compound 192] | 75.6 | 63.7 | 124 | 114 | 7 nM and 6.8 nM |  |  |  |  |
| Cn1c2cc3cc(cnc31)CCCCCOc1ccc(cn1)C(CC(=O)O)c1ccc3c(c1)CN(CC3)C2=O (racemic) [Compound 158, 2-(33-methyl-2-oxo-15-oxa-1,7,17,33-tetrazahexacyclo[19.5.3.216,19.13,6.15,9.024,28]tritriaconta-3,5,7,9(32),16,18,21(29),22,24(28),30-decaen-20-yl)acetic Acid] | 18.2 | 22.1 | 400 | 403 | 3.6 nM and 3.2 nM |  |  |  |  |
| C[C@H](C(=O)O)[C@@H]1c2ccc(nc2)OCC/C=C/Cc2ccc(cc2)C(=O)N2CCc3ccc1cc3C2 [Compound 47] |  |  |  |  | 26.4 nM | 26.2 | 26 nM and 28.7 nM | 94.2 nM and 96.9 nM | 140 |
| Cc1cc2ncc1[C@@H](CC(=O)O)c1ccc3c(c1)CN(CC3)C(=O)c1ccc(cc1)CCOCCO2 [Compound 351] |  |  |  |  | 649 nM and 619 nM and 401 nM and 416 nM | > 1000 | 1780 nM | 2880 nM and 2800 nM | 3740 |

| Compound | EC50 [1, 4] [nM] | EC50 [1, 5] [nM] | EC50 ([2]; BEAS+, read-out: BEAS+ EC50) [nM] | EC50 [2, 6] [nM] | IC50 [3] | EC50 [1, 7] [nM] | EC50 [1, 8] | EC50 [2, 9] | EC50 [2, 10] [nM] |
| --- | --- | --- | --- | --- | --- | --- | --- | --- | --- |
| Cc1c2ccc3c1nnn3CCOCCCc1ccc(c(F)c1)C(=O)N1CCc3ccc(cc3C1)[C@@H]2CC(=O)O [Compound 364] |  |  |  |  | 1.7 nM and 1.6 nM | 56 | 68.3 nM | 92.6 nM | 98.8 |
| O=C(O)CC1c2ccc3c(c2)CN(CC3)C(=O)c2ccc(c(F)c2F)OCCCCCCn2nnc3cc1ccc32 (stereo not shown) [Compound 320] | 332 |  |  | 462 | < 0.1 nM |  |  |  |  |
| Cc1cc2ncc1C(CC(=O)O)c1ccc3c(c1)CN(CC3)C(=O)c1ccc(cc1)CCCCCO2 (stereo not shown) [Compound 157] | 3.2 | 2.1 | 8.9 | 9.2 | 3.8 nM and 4 nM |  |  |  |  |
| COc1cc2ccc1CCCCCCn1nnc3c(C)c(cnc31)[C@@H](CC(=O)O)c1ccc3c(c1)CN(CC3)C2=O [Compound 96] |  |  |  |  | 0.8 nM | 25.5 | 29.4 nM | 49.6 nM | 42.8 |
| Cc1c2ccc3c1nnn3CCCCCCOc1ccc(cc1)C(=O)N1CCc3ccc(cc3C1)C2CC(=O)O (stereo not shown) [Compound 247] | 29.4 | 26.3 | 47.2 | 45.4 | 1.6 nM and 1.7 nM |  |  |  |  |
| C[C@@H](C(=O)O)[C@@H]1c2ccc(nc2)OCC/C=C/Cc2ccc(cc2)C(=O)N2CCc3ccc1cc3C2 [Compound 46] |  |  |  |  | 0.4 nM and 0.3 nM | 0.7 | 0.5 nM | 2 nM | 3.3 |
| O=C(O)C[C@@H]1c2cnc(nc2)OCCCCCc2c(F)c(F)c(c(F)c2F)C(=O)N2CCc3ccc1cc3C2 [Compound 44] |  |  |  |  | 6.7 nM and 5.1 nM | 393 |  |  | 1560 |
| O=C(O)CC1c2ccc(nc2)OCCCCOc2ccc(cc2C(F)(F)F)C(=O)N2CCc3ccc1cc3C2 (stereo not shown) [Compound 184] | 471 | 713 | 2570 | 2900 | 168 nM and 147 nM |  |  |  |  |
| Cc1c2ccc3c1nnn3C/C=C/COCc1ccc(c(F)c1)C(=O)N1CCc3ccc(cc3C1)C2CC(=O)O (stereo not shown) [Compound 386] | 90.3 | 89 | 105 | 123 | 1.9 nM and 2 nM |  |  |  |  |
| Cc1c2cnc3c1nnn3CCCCCCOc1cc(F)c(c(F)c1)C(=O)N1CCc3ccc(cc3C1)C2CC(=O)O (stereo not shown) [Compound 128] | 14.2 | 12.2 | 20.3 | 17.7 | 1 nM and 1.4 nM | 9.8 | 7.1 nM | 47.2 nM | 31 |
| Cc1c2ccc3c1nnn3CCCCCCc1ccc(cc1)C(=O)N1CCc3ccc(cc3C1)[C@H]2[C@H](C)C(=O)O [Compound 134] | 22.6 | 20.2 | 72.8 | 80.5 | 3.8 nM (2×) and 10.4 nM and 9.8 nM | 56.5 | 90.8 nM | 203 nM | 143 |
| Cc1c2cnc3c1nnn3CCCCCc1ccc(cc1)C(=O)N1CCc3ccc(cc3C1)[C@@H]2CC(=O)O [Compound 124] |  |  |  |  | 0.6 nM | 7.6 | 7.3 nM | 12.5 nM | 9 |
| Cc1cc2ccc1C(=O)N1CCc3ccc(cc3C1)[C@H]([C@H](C)C(=O)O)c1ccc3c(nnn3CCCOCCO2)c1C [Compound 370] | 1480 | 1350 | 1710 | 1640 | 4.3 nM and 4.2 nM |  |  |  |  |
| Cc1c2ccc3c1nnn3CCCCCCOc1ccc(c(F)c1F)C(=O)N1CCc3ccc(cc3C1)C2CC(=O)O (stereo not shown) [Compound 318] | 20.4 |  |  | 59.2 | 0.8 nM |  |  |  |  |
| COc1cc2ccc1CCCCCCn1nnc3c(C)c(ccc31)[C@@H](CC(=O)O)c1ccc3c(c1)CN(CC3)C2=O [Compound 101] |  |  |  |  | 2.6 nM and 2.8 nM | 4.7 | 5.1 nM | 31 nM | 34.9 |
| Cc1cc2ccc1C(=O)N1CCc3ccc(cc3C1)[C@H](CC(=O)O)c1ccc3c(nnn3CCC/C=C/C2)c1C [Compound 389] | 147 | 153 | 409 | 231 | 1.8 nM and 1.9 nM |  |  |  |  |
| O=C(O)CC1c2ccc3c(c2)CN(CC3)C(=O)c2ncc(cc2F)CCCCCn2nnc3c(Cl)c1ccc32 (stereo not shown) [Compound 215] | 243 | 251 | 310 | 349 | 1 nM and 1.1 nM |  |  |  |  |
| O=C(O)C[C@H]1c2cnc(nc2)OCC/C=C/Cc2c(F)c(F)c(c(F)c2F)C(=O)N2CCc3ccc1cc3C2 [Compound 35] |  |  |  |  | 840 nM and 662 nM | > 1000 |  |  | > 10000 |
